The numbers were not newly measured in patent US20030232875A1, “Bicyclic pyrrolyl amides as glucogen phosphorylase inhibitors” (priority 2000, published 2003), which cites them from elsewhere.

One data set deals with conscious dogs. The following applies: following a glucagon challenge.
The test system of a further data set is hepatocytes. To be noted: in hepatocytes.
In a further data set the test system is db/db and ob/ob mice. To be noted: db/db and ob/ob mice following treatment.

For the molecule `CCN1C(C)=C(C(=O)OC(C)C)C(c2ccccc2Cl)C2=C1COC2=O` (centres unmarked) [Bay R 3401], in the data set with conscious dogs, the “arterial plasma glucose levels” value was “reduced significantly” and the hepatic glucose output entry was “reduced significantly”.
With `CN(C)C(=O)[C@H](O)[C@H](Cc1ccccc1)NC(=O)c1cc2cc(Cl)ccc2[nH]1` [CP91149], in the data set on hepatocytes, the glucagon stimulated glycogenolysis entry is reported as “reduce” and the glucose output entry was “reduce”. For the same molecule, the plasma glucose concentration entry in the data set on db/db and ob/ob mice is recorded as “reduced, in a dose related manner”.
For the molecule `O=C(N[C@@H](Cc1ccc(F)cc1)C(=O)N1CCC(O)CC1)c1cc2cc(Cl)ccc2[nH]1` [CP320626], in the data set on hepatocytes, the glucagon stimulated glycogenolysis result was “reduce” and the glucose output result is listed as “reduce”. In addition, the plasma glucose concentration result in the data set on db/db and ob/ob mice was “reduced, in a dose related manner”.
